Measurements as given in patent US20160137639A1, “TRIAZOLE-ISOXAZOLE COMPOUND AND MEDICAL USE THEREOF” (JAPAN TOBACCO INC., priority 2012, published 2016).
Where two headings read alike, the source gives them in different places.

Experiments:
human RORγ = molecular target: T1, human RORγ (Homo sapiens, UniProt P51449); assay: Luciferase reporter gene assay of inhibitory effect against RORγ transcriptional activity (GAL4-hRORγ plasmid in CHO cells); assay type: cell-based
T1 construct: human, NM_005060.3 and from Ser253 to Lys518; expressed in transfected cells; host or cells: CHO cells (transient co-transfection with pG5-Luc reporter)
T1 sequence (P51449 253-518): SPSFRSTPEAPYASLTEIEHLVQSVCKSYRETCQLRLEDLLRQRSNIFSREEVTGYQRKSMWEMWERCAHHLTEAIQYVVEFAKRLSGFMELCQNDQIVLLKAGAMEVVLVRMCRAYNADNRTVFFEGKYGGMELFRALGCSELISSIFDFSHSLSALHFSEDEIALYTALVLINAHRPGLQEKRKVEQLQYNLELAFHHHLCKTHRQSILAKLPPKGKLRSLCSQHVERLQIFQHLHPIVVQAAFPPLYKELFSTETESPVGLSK

mouse RORγ = molecular target: T2, mouse RORγ (Mus musculus, UniProt P51450); assay: Luciferase reporter gene assay of inhibitory effect against RORγ transcriptional activity (GAL4-mRORγ plasmid in CHO cells); assay type: cell-based
T2 construct: mouse, NM_011281.2 and from Ile251 to Lys516; expressed in transfected cells; host or cells: CHO cells (transient co-transfection with pG5-Luc reporter)
T2 sequence (P51450 251-516): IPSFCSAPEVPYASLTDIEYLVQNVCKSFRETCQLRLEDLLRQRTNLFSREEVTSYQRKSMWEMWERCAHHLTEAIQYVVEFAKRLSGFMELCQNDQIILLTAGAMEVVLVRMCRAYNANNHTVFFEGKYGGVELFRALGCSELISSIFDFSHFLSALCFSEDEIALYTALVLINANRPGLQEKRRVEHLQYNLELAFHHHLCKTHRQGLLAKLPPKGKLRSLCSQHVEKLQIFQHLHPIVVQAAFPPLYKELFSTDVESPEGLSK
Summary of the method: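 CHO cells transiently co-transfected with GAL4-mouse RORγ LBD (Ile251–Lys516) and GAL4-dependent luciferase reporter; eight compound concentrations, 0.1% DMSO, 2 days at 37 °C. Luminescence as %-of-vehicle control; EC50 by curve fit, cytotoxic concentrations excluded.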

Compound	EC50 (human RORγ; read-out: LUC EC50 (μM) hRORg)	EC50 (mouse RORγ; read-out: LUC EC50 (μM) mRORg)	EC50 (human RORγ; read-out: LUC EC50 hRORg)	EC50 (mouse RORγ; read-out: LUC EC50 mRORg)
COc1c(CNC(=O)CCc2nnc(CCC(C)C)n2C2CC2)ccc(C)c1C [Example F-262]	> 3 µM	> 3 µM		
CC(=O)N1C[C@H](C(=O)Nc2ccc(C)cc2C)[C@@H](c2nnc(-c3cc(CCC(C)C)on3)n2C2CC2)C1 [Example F-632]			< 3 µM	< 3 µM
Cc1ccc(NC(=O)CCc2noc(C3(CO)CC(CC(C)(C)C)C3)c2C2CC2)c(Cl)c1 (mixture of isomers) [Example F-730]			< 3 µM	< 3 µM
CC(=O)N1C[C@H](C(=O)Nc2ccc(C)cc2C)[C@@H](c2nnc(CCCC(C)(C)C)n2CC(F)(F)F)C1 [Example F-392]	< 3 µM	< 3 µM		
Cc1c(Cl)cccc1NC(=O)CC(CCN)c1nnc(CCCC(C)C)n1C1CC1 (racemic) [Example F-225]	> 3 µM	> 3 µM		
Cc1c(Cl)cccc1NC(=O)CCc1nnc(C2CN(C(=O)C(C)C)C2)n1C1CC1 [Example F-259]	> 3 µM	> 3 µM		
Cc1c(Cl)cccc1NC(=O)CCc1nnc(CCCC(C)(C)C)n1C1CC1 [Example F-181]	< 3 µM	< 3 µM		
Cc1ccc(NC(=O)CCc2nnn(CCC3CCCCC3)c2C2CC2)c(C)c1 [Example F-443]	< 3 µM	< 3 µM		
CCc1ccccc1NC(=O)CCc1nnc(CCC(C)C)n1C1CC1 [Example F-72]	> 3 µM	> 3 µM		
COc1cc(C)ccc1CNC(=O)[C@H]1CCCN(C)[C@@H]1c1nnc(CCC2CCCCC2)n1C1CC1 [Example F-267]	< 3 µM	< 3 µM		
Cc1ccc(NC(=O)CC(CCN)c2nnc(CCCC(C)C)n2C2CC2)c(C)c1 (racemic) [Example F-273]	> 3 µM	> 3 µM		
Cc1ccc(NC(=O)C[C@H](CCC(=O)O)c2noc(-c3nc(C)c(CC(C)C)s3)c2C2CC2)c(Cl)c1 [Example E-27]	< 3 µM	< 3 µM		
Cc1ccc(NC(=O)CC(CO)c2nnc(CCCC(C)(C)C)n2C2CC2)c(C)c1 (racemic) [Example F-497]			< 3 µM	< 3 µM
CCn1c(CCC(=O)NCc2cccc(C)c2)nnc1CCC1CCCCC1 [Example F-42]	> 3 µM	> 3 µM		
Cc1c(Cl)cccc1NC(=O)CCc1nnc(CCC2CCCN(C)C2)n1C1CC1 (racemic) [Example F-203]	> 3 µM	> 3 µM		
Cc1c(Cl)cccc1NC(=O)CCc1nnc(CCC(C)(C)C(=O)O)n1C1CC1 [Example F-226]	> 3 µM	> 3 µM		
Cc1ccc(NC(=O)CCc2nnc([C@H]3C[C@H](CC4CCCC4)C3)n2C2CC2)c(C)c1 [Example F-423]	< 3 µM	< 3 µM		
Cc1cc(Cl)ccc1NC(=O)C[C@H](CCO)c1nnc([C@H]2C[C@@H](CC(C)C)C2)n1C1CC1 [Example F-525]			< 3 µM	< 3 µM
CC(=O)N1C[C@H](C(=O)Nc2ccc(C)cc2C)[C@@H](c2nnc([C@H]3C[C@@H](OC(C)C)C3)n2C2CC2)C1 [Example F-336]	> 3 µM	> 3 µM		
CC(C)(C)C[C@H]1C[C@@H](c2onc([C@@H](CCC(=O)O)CC(=O)NC3CCC3)c2C2CC2)C1 [Example F-711]			> 3 µM	> 3 µM
Cc1c(Cl)cccc1NC(=O)CCc1nnc(CCN2CCCCC2=O)n1C1CC1 [Example F-187]	> 3 µM	> 3 µM		
CCn1c(CCC(=O)Nc2cc(C)cc(C)c2)nnc1CCC1CCCC1 [Example F-49]	> 3 µM	> 3 µM		

Compound	EC50 (human RORγ; read-out: LUC EC50 (μM) hRORg)	EC50 (mouse RORγ; read-out: LUC EC50 (μM) mRORg)	EC50 (human RORγ; read-out: LUC EC50 hRORg)	EC50 (mouse RORγ; read-out: LUC EC50 mRORg)
CCN(CC)CC(=O)N1C[C@H](C(=O)Nc2ccc(C)cc2C)[C@@H](c2nnc([C@H]3C[C@@H](CC(C)(C)C)C3)n2C2CC2)C1 [Example F-650]			< 3 µM	< 3 µM
Cc1ccc(NC(=O)C[C@H](CCC(=O)O)c2noc(-c3cc(C4CC(F)(F)C4)on3)c2C2CC2)c(Cl)c1 [Example E-47]	< 3 µM	< 3 µM		
C=CCC(CC(=O)Nc1ccc(C)cc1C)c1nnc(CCCC(C)C)n1C1CC1 (racemic) [Example F-198]	< 3 µM	< 3 µM		
O=C(CCc1nnc(C2Cc3ccccc3C2)[nH]1)Nc1cccc2ccccc12 [Example F-9]	> 3 µM	> 3 µM		
CC(=O)N1C[C@H](C(=O)Nc2ccc(C)cc2C)[C@@H](c2nnc(C(O)CCC(C)(C)C)n2C2CC2)C1 (single isomer, unassigned) [Example F-349]	> 3 µM	> 3 µM		
Cc1ccc(NC(=O)[C@H]2CN(S(=O)(=O)CC(F)(F)F)C[C@@H]2c2nnc([C@H]3C[C@@H](CC(C)(C)C)C3)n2C2CC2)c(C)c1 [Example F-559]			< 3 µM	< 3 µM
CCn1c(CCC(=O)Nc2cc(Cl)cc(Cl)c2)nnc1C1Cc2ccccc2C1 [Example F-29]	> 3 µM	> 3 µM		
COc1c(C)ccc(NC(=O)C[C@H](CCCO)c2noc([C@H]3C[C@@H](CC(C)(C)C)C3)c2C2CC2)c1C [Example F-696]			< 3 µM	< 3 µM
CC(=O)N1CC[C@H](C(=O)Nc2ccc(C)cc2C)[C@H]1c1nnc(CCCC(C)(C)C)n1C1CC1 [Example F-296]	< 3 µM	< 3 µM		
Cc1ccc(NC(=O)CCc2nnc(C3CC(CC(=O)OC(C)(C)C)C3)n2C2CC2)c(C)c1 (mixture of isomers) [Example F-427]	> 3 µM	< 3 µM		
Cc1ccc(CNC(=O)CCc2nnc(CCC(C)C)n2C2CC2)c(C)c1 [Example F-119]	< 3 µM	< 3 µM		
Cc1ccc(NC(=O)[C@H]2CC(O)(C(F)(F)F)C[C@@H]2c2nnc([C@H]3C[C@@H](CC(C)C)C3)n2C2CC2)c(C)c1 (mixture of isomers) [Example F-545]			< 3 µM	< 3 µM
COc1cc(C)ccc1CNC(=O)CC(CCO)c1nnc(CCCC(C)C)n1C1CC1 (racemic) [Example F-202]	< 3 µM	< 3 µM		
COc1ccc(C)c(NC(=O)CCc2nnc(CCC(C)C)n2C2CC2)c1 [Example F-92]	> 3 µM	> 3 µM		
CCc1ccccc1CNC(=O)CCc1nnc(CCC(C)C)n1C1CC1 [Example F-125]	> 3 µM	> 3 µM		
Cc1c(Cl)cccc1NC(=O)CCc1nnc(CCCC(C)C)n1C1CC1 [Example F-120]	< 3 µM	< 3 µM		
CC(=O)N1C[C@H](C(=O)Nc2ccc(C)cc2C)[C@@H](c2nnc(CCC(C)(C)C)n2C2CC2)C1 (racemic) [Example F-223]	< 3 µM	< 3 µM		
CC(C)(C)C(F)(F)c1cc(-c2onc([C@@H](CCC(=O)O)CC(=O)Nc3ccc(Cl)cc3F)c2C(F)F)no1 [Example E-62, Sodium (S)-5-(4-chloro-2-fluoro-phenylcarbamoyl)-4-[5-(1,1-difluoro-2,2-dimethylpropyl)-4′-difluoromethyl-[3,5′]biisoxazolyl-3′-yl]-pentanoate]	< 3 µM	< 3 µM		
Cc1ccc(NC(=O)C(C)C(CCO)c2nnc([C@H]3C[C@@H](CC(C)C)C3)n2C2CC2)c(C)c1 (single isomer, unassigned) [Example F-490]	> 3 µM	> 3 µM		
CC(=O)N1C[C@H](C(=O)Nc2ccc(C)cc2C)[C@@H](c2nnc(-c3ccc(C(C)C)cc3)n2C2CC2)C1 [Example F-411]	< 3 µM	< 3 µM		
CC(C)CCc1nnc(CCC(=O)Nc2cccc3ccccc23)n1C1CC1 [Example F-81]	< 3 µM	< 3 µM		
CCc1cccc(NC(=O)CCc2nnc(CCC(C)C)n2C2CC2)c1 [Example F-132]	> 3 µM	> 3 µM		
